Experimental data from PubChem BioAssay (NCI).
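Following 48 hours of exposure in 96-well plates, responses at five concentrations were used to interpolate endpoints linearly. At the TGI there is no net growth.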

Columns and labels:
Test in all cases: growth of human tumour cells (NCI), 48 h
786-0 renal = tested on: 786-0 renal
HL-60(TB) leukemia = tested on: HL-60(TB) leukemia
HT29 colon = tested on: HT29 colon
LOX IMVI melanoma = tested on: LOX IMVI melanoma
MALME-3M melanoma = tested on: MALME-3M melanoma
SK-OV-3 ovarian = tested on: SK-OV-3 ovarian
SNB-75 CNS = tested on: SNB-75 CNS
TK-10 renal = tested on: TK-10 renal
SR leukemia = tested on: SR leukemia
NCI/ADR-RES ovarian = tested on: NCI/ADR-RES ovarian

Row | Structure (SMILES) | TGI (786-0 renal) | TGI (HL-60(TB) leukemia) | TGI (HT29 colon) | TGI (LOX IMVI melanoma) | TGI (MALME-3M melanoma) | TGI (SK-OV-3 ovarian) | TGI (SNB-75 CNS) | TGI (TK-10 renal) | TGI (SR leukemia) | TGI (NCI/ADR-RES ovarian)
1 | CN1c2ccccc2N(C(=O)c2ccc([N+](=O)[O-])cc2)C(CC(=O)O)c2cccn21 (stereo unspecified) | > 100 µM | > 100 µM | > 100 µM | > 100 µM | > 100 µM | > 100 µM | > 100 µM | > 100 µM | – | –
2 | Cc1cc(NCCCCCCCCNc2cc(C)nc3cc(N)ccc23)c2ccc(N)cc2n1 | 53.7 µM | 4.88 µM | 75 µM | 40.1 µM | – | > 100 µM | 69.1 µM | > 100 µM | > 100 µM | –
3 | O=C(/C=C/c1cc(Cl)cc(Cl)c1O)c1cccc(O)c1 | > 100 µM | 93.9 µM | > 100 µM | 25.5 µM | 87.3 µM | > 100 µM | 94.4 µM | > 100 µM | 59.8 µM | –
4 | CC(C)C1=CC(=O)C(C)(C2C(O)CC3(C)C4CC=C5C(CCC(OC6OC(CO)C(O)C(O)C6OC6OC(C)C(O)C(O)C6O)C5(C)C)C4(C)C(=O)CC23C)O1 (stereo unspecified) | > 100 µM | – | > 100 µM | – | > 100 µM | > 100 µM | > 100 µM | – | – | > 100 µM
5 | CCCCCN(CCCCC)C(=O)[C@@H](CCC(=O)O)NC(=O)c1cc2ccccc2[nH]1 | > 100 µM | 41.2 µM | > 100 µM | > 100 µM | > 100 µM | > 100 µM | 61.8 µM | > 100 µM | – | –
6 | Cc1cn(C2CC(O)C(COC(=O)c3ccccc3)O2)c(=O)[nH]c1=O (stereo unspecified) | > 100 µM | > 100 µM | > 100 µM | > 100 µM | > 100 µM | – | – | > 100 µM | > 100 µM | –
7 | Cc1c(Cl)cccc1NC(=O)C(=O)C(C(=O)c1ccccc1-c1ccccc1)C1OC(=O)c2ccccc21 (stereo unspecified) | 33.3 µM | 49.8 µM | > 100 µM | 39.5 µM | 28.8 µM | > 100 µM | 42.1 µM | 57.6 µM | – | –
8 | Nc1ncnc2c1ncn2[C@]1(CO)C=C(CO)C(O)C1O (stereo partly specified) | > 100 µM | > 100 µM | > 100 µM | > 100 µM | > 100 µM | > 100 µM | > 100 µM | > 100 µM | > 100 µM | –
9 | COC(=O)C1CCc2c1c(=O)n1c([nH]c3ccccc31)c2C#N (stereo unspecified) | > 100 µM | > 100 µM | > 100 µM | > 100 µM | > 100 µM | > 100 µM | > 100 µM | > 100 µM | – | –
10 | CN(CCN1C(=O)c2cc([N+](=O)[O-])cc3cc([N+](=O)[O-])cc(c23)C1=O)CCN1C(=O)c2cc([N+](=O)[O-])cc3cc([N+](=O)[O-])cc(c23)C1=O | 13.7 µM | 0.536 µM | > 100 µM | 1.44 µM | 4.31 µM | > 71.5 µM | > 100 µM | > 100 µM | – | –
11 | O=C(N/C(=C\c1ccc(Cl)cc1)c1nc2ccccc2[nH]1)c1ccccc1 | 43.9 µM | – | 81.3 µM | 31.5 µM | > 100 µM | 79.4 µM | 47.2 µM | 63.8 µM | – | –
12 | COC(=O)CCC(NC(=S)N/N=C(\C)c1cnc2ccccc2n1)C(=O)OC (stereo unspecified) | > 100 µM | 9.3 µM | 31.3 µM | 66.3 µM | > 100 µM | > 100 µM | > 100 µM | > 100 µM | 42.8 µM | –
13 | COc1ccc(C2=C(Cl)c3cc(OC)c(OC)cc3C2OC)cc1OC (stereo unspecified) | > 100 µM | > 100 µM | > 100 µM | > 100 µM | > 100 µM | – | > 100 µM | > 100 µM | – | –
14 | Cn1c2c(c3ccccc31)CCN(CCCCN1CCCCC1)C2=O | > 100 µM | > 100 µM | > 100 µM | – | – | > 100 µM | – | > 100 µM | – | –
15 | CC(=O)OCC1OC(n2cc(F)c(=O)[nH]c2=O)C(NC(=O)N(CCCl)N=O)C(OC(C)=O)C1OC(C)=O (stereo unspecified) | > 100 µM | > 100 µM | > 100 µM | > 100 µM | > 100 µM | > 100 µM | 78.3 µM | > 100 µM | > 100 µM | –
16 | COc1ccc(NC(=O)C(=O)c2c(O)c3ccc(O)cc3oc2=O)c([N+](=O)[O-])c1 | > 100 µM | > 100 µM | > 100 µM | > 100 µM | > 100 µM | > 100 µM | > 100 µM | > 100 µM | – | –
17 | CCC(C)CCOC(=O)c1ccc(N=Cc2ccc(C=Nc3ccc(C(=O)OCCC(C)CC)cc3)cc2)cc1 (stereo unspecified) | > 100 µM | > 100 µM | > 100 µM | > 100 µM | > 100 µM | > 100 µM | > 100 µM | – | > 100 µM | –
18 | CN1C(=O)CCC1(O)C1C=CC=CC1 (stereo unspecified) | > 100 µM | > 100 µM | > 100 µM | > 100 µM | > 100 µM | > 100 µM | > 100 µM | > 100 µM | > 100 µM | –
